1 molecule from PMC10147936, “Dietary factors potentially impacting thiaminase I-mediated thiamine deficiency” (Scientific Reports, 2023) can be followed below.

As a reminder, the IC50 is the point on the concentration scale where inhibition reaches its midpoint. Low readings indicate higher potency, high ones lower potency.

The experiment addresses T1, thiaminase I from C. botulinum (BcmE) (Clostridium botulinum, UniProt A5HZW3).
T1 construct: gene CBO0770
In words: biochemical.

T1 sequence (A5HZW3 1-404): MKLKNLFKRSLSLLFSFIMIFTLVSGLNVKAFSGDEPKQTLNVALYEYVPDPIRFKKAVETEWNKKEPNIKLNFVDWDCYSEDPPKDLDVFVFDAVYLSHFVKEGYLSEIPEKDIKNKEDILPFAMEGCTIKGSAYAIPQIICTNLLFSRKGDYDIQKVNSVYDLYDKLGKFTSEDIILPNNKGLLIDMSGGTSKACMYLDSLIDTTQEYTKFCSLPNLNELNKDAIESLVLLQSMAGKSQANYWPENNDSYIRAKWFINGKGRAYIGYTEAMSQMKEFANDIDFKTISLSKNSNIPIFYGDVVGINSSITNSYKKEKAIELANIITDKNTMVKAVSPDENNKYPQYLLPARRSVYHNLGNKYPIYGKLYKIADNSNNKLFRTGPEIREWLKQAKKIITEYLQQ

Molecule `O=C1O[C@H]([C@@H](O)CO)C(O)=C1O` [ascorbic acid] came in with an IC50 of 266 nM.
